# From PubChem BioAssay (NCI)
#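 Dose response: 5 concentrations. Exposure: 48 h. Format: 96-well plates. Endpoint: linear interpolation; highest concentration if not reached. Definition used: TGI = concentration required for complete inhibition of growth.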
# Legend:
# Assay in all cases: inhibition of tumour cell growth, NCI panel, 48 h
# CAKI-1 renal = test system: CAKI-1 renal
# CCRF-CEM leukemia = test system: CCRF-CEM leukemia
# DU-145 prostate = test system: DU-145 prostate
# HS 578T breast = test system: HS 578T breast
# IGROV1 ovarian = test system: IGROV1 ovarian
# MCF7 breast = test system: MCF7 breast
# MDA-MB-231 breast = test system: MDA-MB-231 breast
# MDA-N = test system: MDA-N
# NCI-H226 lung = test system: NCI-H226 lung
# NCI-H460 lung = test system: NCI-H460 lung
# NCI-H522 lung = test system: NCI-H522 lung
# NCI/ADR-RES ovarian = test system: NCI/ADR-RES ovarian
# PC-3 prostate = test system: PC-3 prostate
# SF-295 CNS = test system: SF-295 CNS
# SK-MEL-28 melanoma = test system: SK-MEL-28 melanoma
# SK-MEL-5 melanoma = test system: SK-MEL-5 melanoma
# SNB-75 CNS = test system: SNB-75 CNS
# SR leukemia = test system: SR leukemia
# T-47D breast = test system: T-47D breast
# BT-549 breast = test system: BT-549 breast
SMILES,TGI (CAKI-1 renal),TGI (CCRF-CEM leukemia),TGI (DU-145 prostate),TGI (HS 578T breast),TGI (IGROV1 ovarian),TGI (MCF7 breast),TGI (MDA-MB-231 breast),TGI (MDA-N),TGI (NCI-H226 lung),TGI (NCI-H460 lung),TGI (NCI-H522 lung),TGI (NCI/ADR-RES ovarian),TGI (PC-3 prostate),TGI (SF-295 CNS),TGI (SK-MEL-28 melanoma),TGI (SK-MEL-5 melanoma),TGI (SNB-75 CNS),TGI (SR leukemia),TGI (T-47D breast),TGI (BT-549 breast)
C[C@H]1C[C@H]2[C@@H]3CCC4=CC(=O)C=C[C@]4(C)C3=CC[C@]2(C)[C@@]1(O)C(=O)CO,> 100 µM,> 100 µM,> 100 µM,> 100 µM,> 100 µM,> 100 µM,> 100 µM,> 100 µM,> 100 µM,> 100 µM,> 100 µM,> 100 µM,> 100 µM,> 100 µM,> 100 µM,> 100 µM,> 100 µM,> 100 µM,> 100 µM,
C/C(N)=N/OCc1nc(C)no1,> 100 µM,> 100 µM,> 100 µM,> 100 µM,,> 100 µM,> 100 µM,> 100 µM,,> 100 µM,> 100 µM,> 100 µM,> 100 µM,> 100 µM,> 100 µM,> 100 µM,> 100 µM,> 100 µM,> 100 µM,> 100 µM
C=C1C2CCC3(CCC4C5(C)CCCC4(C=[N+](CCO)C5)C3C2)C1O (configuration not stated),> 100 µM,> 100 µM,> 100 µM,> 100 µM,> 100 µM,> 100 µM,> 100 µM,> 100 µM,,> 100 µM,> 100 µM,> 100 µM,> 100 µM,> 100 µM,> 100 µM,> 100 µM,> 100 µM,> 100 µM,> 100 µM,> 100 µM
BrCc1ccc(CBr)c2c1-c1c(CBr)ccc3ccc(CBr)c-2c13,,,> 100 µM,> 100 µM,> 100 µM,> 100 µM,> 100 µM,> 100 µM,> 100 µM,> 100 µM,> 100 µM,> 100 µM,> 100 µM,> 100 µM,> 100 µM,,> 100 µM,> 100 µM,> 100 µM,> 100 µM
CC(=O)NCCCCN(CCCNC(C)=O)C(=O)OCc1ccccc1,> 100 µM,> 100 µM,> 100 µM,> 100 µM,> 100 µM,> 100 µM,> 100 µM,> 100 µM,> 100 µM,> 100 µM,> 100 µM,> 100 µM,> 100 µM,> 100 µM,> 100 µM,> 100 µM,> 100 µM,,> 100 µM,> 100 µM
COC(=O)[C@@]1(NC(=O)C(CC(=O)OC(C)(C)C)NC(=O)OC(C)(C)C)C[C@H]1C (some centres not stated),> 100 µM,> 100 µM,> 100 µM,> 100 µM,> 100 µM,> 100 µM,> 100 µM,> 100 µM,> 100 µM,> 100 µM,> 100 µM,> 100 µM,> 100 µM,> 100 µM,> 100 µM,> 100 µM,> 100 µM,,> 100 µM,> 100 µM
C=C(CCC=C(C)C)C1CC=C(C)CC1 (configuration not stated),42.2 µM,,71.1 µM,59 µM,28.4 µM,42.2 µM,97.6 µM,37.9 µM,> 100 µM,40.1 µM,32.3 µM,> 100 µM,,45 µM,,31 µM,,,> 100 µM,> 100 µM
NC(=O)c1sc2nc3ccccc3n2c1N,> 100 µM,> 100 µM,> 100 µM,> 100 µM,> 100 µM,> 100 µM,> 100 µM,> 100 µM,> 100 µM,,,> 100 µM,> 100 µM,50.8 µM,> 100 µM,> 100 µM,79.1 µM,,> 100 µM,76.8 µM
COc1cccc(C(NC2=NCCC=N2)c2cc3c(cc2O)OCO3)c1O (configuration not stated),> 100 µM,32.8 µM,> 100 µM,79.7 µM,> 100 µM,35.3 µM,59.9 µM,> 100 µM,> 100 µM,> 100 µM,40.2 µM,,> 100 µM,> 100 µM,> 100 µM,> 100 µM,93.8 µM,34.9 µM,63.5 µM,33.3 µM
c1cc(CN2CCNCCNCCNCC2)cc(CN2CCNCCNCCNCC2)c1,,,> 100 µM,> 100 µM,> 100 µM,> 100 µM,> 100 µM,> 100 µM,> 100 µM,> 100 µM,,> 100 µM,> 100 µM,> 100 µM,> 100 µM,> 100 µM,> 100 µM,> 100 µM,> 100 µM,> 100 µM
O/N=C1/CCCc2nonc21,> 100 µM,> 100 µM,> 100 µM,> 100 µM,> 100 µM,> 100 µM,> 100 µM,> 100 µM,> 100 µM,> 100 µM,,> 100 µM,> 100 µM,> 100 µM,> 100 µM,> 100 µM,> 100 µM,> 100 µM,> 100 µM,
O=C(O)Cc1cccc2c(=O)c3cccc([N+](=O)[O-])c3[nH]c12,> 100 µM,> 100 µM,> 100 µM,> 100 µM,> 100 µM,> 100 µM,> 100 µM,> 100 µM,,> 100 µM,> 100 µM,> 100 µM,> 100 µM,> 100 µM,,> 100 µM,> 100 µM,> 100 µM,> 100 µM,> 100 µM
CCC(C)N1CN(c2ccccc2)C2(CCN(CCCSc3ccc(F)cc3)CC2)C1=O (configuration not stated),11 µM,7.22 µM,10.1 µM,,14.2 µM,11.1 µM,1.1 µM,10.7 µM,17 µM,,18.9 µM,11 µM,19.4 µM,5.57 µM,23.8 µM,4.62 µM,25 µM,46.7 µM,10.2 µM,6.99 µM
Cc1ccc(S(=O)(=O)N2CC(CCN)c3ccccc32)cc1 (configuration not stated),23.8 µM,> 100 µM,31.3 µM,54.5 µM,> 53.4 µM,29.8 µM,29.9 µM,11 µM,11.6 µM,> 64.8 µM,14.6 µM,17 µM,29 µM,33.5 µM,34.7 µM,17.7 µM,26.5 µM,> 100 µM,,21.9 µM
CSc1nc2c3ccccc3ccn2c1C(=O)N/N=C/c1ccccc1,> 40 µM,> 100 µM,> 100 µM,> 71.6 µM,> 100 µM,> 100 µM,40.8 µM,> 100 µM,> 100 µM,> 73.7 µM,> 100 µM,> 71.9 µM,> 100 µM,> 72.4 µM,> 100 µM,> 100 µM,> 71.2 µM,> 100 µM,> 90.2 µM,
Nc1[nH]c(=O)[nH]c(=O)c1Cc1cccc(Cl)c1,> 100 µM,,,> 100 µM,> 100 µM,48.8 µM,> 100 µM,> 100 µM,> 100 µM,> 100 µM,> 100 µM,> 100 µM,> 100 µM,> 100 µM,> 100 µM,,> 100 µM,,> 100 µM,> 100 µM
COc1cc(C(=O)O)c(-c2cc3c(cc2C=O)OCO3)c(OC)c1OC,> 10 µM,> 10 µM,> 10 µM,> 10 µM,> 10 µM,> 10 µM,> 10 µM,> 10 µM,,,> 10 µM,> 10 µM,> 10 µM,> 10 µM,> 10 µM,> 10 µM,> 10 µM,> 10 µM,> 10 µM,> 10 µM
CNC(=O)CCCNC(=O)CCCC(=O)OC,> 100 µM,> 100 µM,> 100 µM,> 100 µM,> 100 µM,> 100 µM,> 100 µM,> 100 µM,> 100 µM,> 100 µM,> 100 µM,> 100 µM,> 100 µM,> 100 µM,> 100 µM,> 100 µM,> 100 µM,,> 100 µM,> 100 µM
Nc1ccc(-c2nc3ccc(F)cc3s2)cc1I,> 100 µM,> 100 µM,> 100 µM,> 100 µM,> 100 µM,> 100 µM,> 100 µM,> 100 µM,> 100 µM,> 100 µM,> 100 µM,> 100 µM,> 100 µM,> 100 µM,> 100 µM,> 100 µM,> 76.1 µM,> 100 µM,,> 100 µM
c1ccc2c(-c3csc(-c4c[nH]c5ccccc45)n3)c[nH]c2c1,> 100 µM,,> 100 µM,> 100 µM,> 100 µM,> 100 µM,> 100 µM,> 100 µM,> 100 µM,> 100 µM,,> 100 µM,> 100 µM,> 89.1 µM,> 100 µM,,> 79.1 µM,> 74.6 µM,> 100 µM,> 100 µM
O=C(O)CC12CC3CC(CC(O)(C3)C1)C2,> 100 µM,,> 100 µM,59.9 µM,> 100 µM,> 100 µM,> 100 µM,> 100 µM,> 100 µM,> 100 µM,59.4 µM,> 100 µM,> 100 µM,> 100 µM,> 100 µM,> 100 µM,> 100 µM,> 100 µM,> 100 µM,> 100 µM
Cc1ccc(/C=C2\Cc3cc(C)c(C)cc3C2=O)c(C(=O)O)c1,> 100 µM,> 100 µM,> 100 µM,> 100 µM,> 100 µM,> 100 µM,> 100 µM,> 100 µM,89.1 µM,> 100 µM,> 100 µM,,> 100 µM,> 100 µM,> 100 µM,> 100 µM,> 100 µM,> 100 µM,> 100 µM,82.6 µM
O=S(=O)(O)c1ccc2cc(N=Nc3c(O)ccc4ccccc34)ccc2c1,> 100 µM,> 100 µM,> 100 µM,> 100 µM,> 100 µM,> 100 µM,,> 100 µM,> 100 µM,> 100 µM,> 100 µM,> 100 µM,> 100 µM,> 100 µM,,> 100 µM,> 100 µM,> 100 µM,> 100 µM,> 100 µM
COc1ccc(-n2c(C)nc3ccc(NC4OC(CO)C(O)C(O)C4O)cc3c2=O)cc1 (configuration not stated),> 100 µM,,> 100 µM,> 100 µM,> 100 µM,> 100 µM,> 100 µM,> 100 µM,> 100 µM,> 100 µM,> 100 µM,> 100 µM,> 100 µM,> 100 µM,> 100 µM,> 100 µM,> 100 µM,> 100 µM,> 100 µM,> 100 µM
Cc1ccc(/N=N/C(=NNC(=O)c2ccc(C)cc2)c2ccc(N(C)C)cc2)cc1,48.8 µM,,73.9 µM,> 100 µM,> 100 µM,46.2 µM,> 100 µM,46.1 µM,68.4 µM,80.3 µM,49.9 µM,> 100 µM,> 100 µM,76.1 µM,> 100 µM,30.7 µM,,45.1 µM,> 100 µM,62.4 µM
CCOC(=O)/C=C/C1(CCOC(C)=O)CCCCC1,> 10 µM,> 10 µM,> 10 µM,> 10 µM,> 10 µM,> 10 µM,> 10 µM,> 10 µM,> 10 µM,> 10 µM,> 10 µM,> 10 µM,> 10 µM,> 10 µM,> 10 µM,> 10 µM,> 10 µM,> 10 µM,> 10 µM,
